According to US12599672B2, “KRAS proteolysis targeting chimeras” (PAQ Therapeutics Inc., priority 2023, dated 2026):

Columns and labels:
Assay type in all cases: cell-based
[1] = biological target: T1, KRAS G12D (Homo sapiens, UniProt P01116, G12D); assay: KRAS G12D HiBit assay; settings: AsPc-1-KRAS (G12D)-HiBit-KI cell, compound treatment for 24 hours; for DC50: absolute DC50
T1 construct: AsPc-1-KRAS (G12D)-HiBit-KI cell (Pharmaron); host or cells: AsPc-1-KRAS (G12D)-HiBit-KI cells (HiBiT knock-in at the endogenous KRAS locus)
Method in brief: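 HiBiT luminescence, detected by adding lytic buffer, substrate and LgBiT protein, served as the KRAS G12D read-out. Compounds, serially diluted 3-fold over 10 points from 0.3 mM DMSO stock, were on cells for 24 h; percent inhibition normalized to cells given 0.1% DMSO only.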

[2] = biological target: T2, KRAS G12V (Homo sapiens, UniProt P01116, G12V); assay: KRAS G12V HiBit assay; settings: SW620-KRAS (G12V)-HiBit-KI cells, compound treatment for 24 hours, class symbols
T2 construct: SW620-KRAS (G12V)-HiBit-KI cell (Pharmaron); host or cells: SW620-KRAS (G12V)-HiBit-KI cells (HiBiT knock-in at the endogenous KRAS locus)
Method in brief: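 Luminescence from lytic Nano-Glo HiBiT detection with LgBiT read KRAS G12V levels after 24 h compound exposure. Dilutions were 10-point, 3-fold, from a 0.3 mM DMSO stock. Degradation activity was normalised to cells given 0.1% DMSO alone.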

[3] = biological target: T3, KRAS (Homo sapiens, UniProt P01116); assay: KRASamp MSD assay; settings: KE39 (KRAS amplified) cells, treated with test compounds for 24 hr, MSD readout of KRAS degradation
T3 construct: endogenous in cells; host or cells: KE39 (KRAS amplified) cells
Description: KE39 (KRAS amplified) cells were cultured in RPMI 1640 medium (Gibco, 11875093), seeded into 96 well plate and treated with test compounds for 24 hr. The cells were washed with PBS and lysed in plate for 1 hr at 4° C. with agitation in RIPA buffer (Cat No. BP-115D) supplemented with protease and phosphatase inhibitor cocktail. The lysates were loaded into MSD plate coated with KRAS capture antibody (LSBio, C175665, 1:1000) for 1 h at RT with agitation. The plate was then washed three times with TBST and incubated with KRAS detection antibody (Abcam, Ab275876. 1:2000) for 1 h at RT. After washing three times with TBST, the plate was incubated with secondary detection antibody GAR (1:500) for 1 hr at RT followed with 3×TBST washing. 2×MSD reading buffer was added into individual wells and the plate was finally read by MSD reader (MSD, SQ 120 MM). The recombinant WT KRAS protein was used for standard curve generation and protein quantification. The degradation activity was calculated using the following formula: […]
DC50 was calculated by fitting the curve using GraphPad Prism v8.0.2 (analysis 263): […]

[4] = numeric bounds given in place of class symbols

T2 sequence (P01116 1-188 isoform P01116-2 G12V): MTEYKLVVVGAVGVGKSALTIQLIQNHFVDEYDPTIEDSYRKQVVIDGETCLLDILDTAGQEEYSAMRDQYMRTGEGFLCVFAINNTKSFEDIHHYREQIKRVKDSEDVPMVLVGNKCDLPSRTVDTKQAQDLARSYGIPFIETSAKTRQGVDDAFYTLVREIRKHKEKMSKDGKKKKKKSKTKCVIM
T1 sequence (P01116 1-188 isoform P01116-2 G12D): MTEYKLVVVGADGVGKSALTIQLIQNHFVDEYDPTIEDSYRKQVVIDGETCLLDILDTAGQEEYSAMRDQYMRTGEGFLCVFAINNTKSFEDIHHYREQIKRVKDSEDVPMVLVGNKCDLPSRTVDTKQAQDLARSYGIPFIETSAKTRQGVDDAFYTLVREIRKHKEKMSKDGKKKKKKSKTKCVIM
T3 sequence (P01116 1-188 isoform P01116-2): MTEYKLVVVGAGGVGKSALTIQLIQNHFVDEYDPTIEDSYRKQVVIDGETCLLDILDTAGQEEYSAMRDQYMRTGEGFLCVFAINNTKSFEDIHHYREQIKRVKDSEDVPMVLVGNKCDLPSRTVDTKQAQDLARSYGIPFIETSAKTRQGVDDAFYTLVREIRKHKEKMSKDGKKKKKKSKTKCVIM

Row | DC50 ([1]; class symbols) | DC50 [2] | DC50 [3] | DC50 [1, 4] | Dmax ([1]; class symbols) | SMILES
1 | < 100 nM | < 10 nM | < 1 nM | – | – | CCc1cccc2cc(O)cc(-c3ncc4c(N5CCC[C@@](C)(O)C5)nc(OC[C@@]56CCCN5[C@H](COC(=O)N5CCC7(CC5)CC(N5CCC(c8ccc9c(c8)n(C)c(=O)n9C8CCC(=O)NC8=O)CC5)C7)CC6)nc4c3F)c12 (stereo partly drawn) [Compound 468, ((3S,7aS)-7a-(((7-(8-ethyl-3-hydroxynaphthalen-1-yl)-8-fluoro-4-((R)-3-hydroxy-3-methylpiperidin-1-yl)pyrido[4,3-d]pyrimidin-2-yl)oxy)methyl)hexahydro-1H-pyrrolizin-3-yl)methyl 2-(4-(1-(2,6-dioxopiperidin-3-yl)-3-methyl-2-oxo-2,3-dihydro-1H-benzo[d]imidazol-5-yl)piperidin-1-yl)-7-azaspiro[3.5]nonane-7-carboxylate]
2 | < 100 nM | < 10 nM | 1 to 10 nM | – | – | CCc1c(F)ccc2cc(O)cc(-c3ncc4c(N5CCC[C@@](C)(O)C5)nc(OC[C@@]56CCCN5[C@H](COC(=O)N5CCC7(CC5)CC(N5CC(c8ccc9c(c8)n(C)c(=O)n9C8CCC(=O)NC8=O)C5)C7)CC6)nc4c3F)c12 (stereo partly drawn) [Compound 464, ((3S,7aS)-7a-(((7-(8-ethyl-7-fluoro-3-hydroxynaphthalen-1-yl)-8-fluoro-4-((R)-3-hydroxy-3-methylpiperidin-1-yl)pyrido[4,3-d]pyrimidin-2-yl)oxy)methyl)hexahydro-1H-pyrrolizin-3-yl)methyl 2-(3-(1-(2,6-dioxopiperidin-3-yl)-3-methyl-2-oxo-2,3-dihydro-1H-benzo[d]imidazol-5-yl)azetidin-1-yl)-7-azaspiro[3.5]nonane-7-carboxylate]
3 | – | < 10 nM | 1 to 10 nM | > 100 nM | – | CCc1c(F)ccc2cc(O)cc(-c3ncc4c(N5CCC[C@@](C)(O)C5)nc(OC[C@@]56CCCN5[C@H](COC(=O)N5CCC(C#Cc7ccc8c(c7)n(C)c(=O)n8C7CCC(=O)NC7=O)CC5)CC6)nc4c3F)c12 (stereo partly drawn) [Compound 404, ((3S,7aS)-7a-(((7-(8-ethyl-7-fluoro-3-hydroxynaphthalen-1-yl)-8-fluoro-4-((R)-3-hydroxy-3-methylpiperidin-1-yl)pyrido[4,3-d]pyrimidin-2-yl)oxy)methyl)hexahydro-1H-pyrrolizin-3-yl)methyl 4-((1-(2,6-dioxopiperidin-3-yl)-3-methyl-2-oxo-2,3-dihydro-1H-benzo[d]imidazol-5-yl)ethynyl)piperidine-1-carboxylate]
4 | < 100 nM | < 10 nM | < 1 nM | – | > 50% | CCc1c(F)ccc2cc(O)cc(-c3ncc4c(N5CCC[C@@](C)(O)C5)nc(OC[C@@]56CCCN5[C@H](COC(=O)N5CCC(CN7CCC(c8ccc9c(c8F)n(C)c(=O)n9C8CCC(=O)NC8=O)CC7)CC5)CC6)nc4c3F)c12 (stereo partly drawn) [Compound 96, [(3S,8S)-8-[[7-(8-Ethyl-7-fluoro-3-hydroxy-1-naphthyl)-8-fluoro-4-[(3R)-3-hydroxyl-3-methyl-1-piperidyl]pyrido[4,3-d]pyrimidin-2-yl]oxymethyl]-1,2,3,5,6,7-hexahydropyrrolizin-3-yl]methyl4-[[4-[1-(2,6-dioxo-3-piperidyl)-4-fluoro-3-methyl-2-oxo-benzimidazol-5-yl]-1-piperidyl]methyl]piperidine-1-carboxylate]
5 | < 100 nM | < 10 nM | < 1 nM | – | – | C#Cc1c(F)ccc2cc(O)cc(-c3ncc4c(N5CCC[C@@](C)(O)C5)nc(OCC5(CN6CCC7(CC6)CC(N6CCN(c8ccc9c(c8)n(C)c(=O)n9C8CCC(=O)NC8=O)CC6)C7)CC5)nc4c3F)c12 (stereo partly shown) [Compound 56]
6 | < 100 nM | < 10 nM | < 1 nM | – | – | C#Cc1c(F)ccc2cc(O)cc(-c3ncc4c(N5CCC[C@@](C)(O)C5)nc(OCC5(CN6CCC7(CC6)CC(N6CCN(c8cccc9c8n(C)c(=O)n9C8CCC(=O)NC8=O)CC6)C7)CC5)nc4c3F)c12 (stereo partly shown) [Compound 71]
7 | < 100 nM | < 10 nM | < 1 nM | – | – | CCc1c(F)ccc2cc(O)cc(-c3ccc4c(N5CCC[C@@](C)(O)C5)nc(OC[C@@]56CCCN5[C@H](COC(=O)N5CCC(CN7CCC(c8cc9c(cc8F)n(C8CCC(=O)NC8=O)c(=O)n9C)CC7)CC5)CC6)nc4c3F)c12 (stereo partly drawn) [Compound 424, ((3S,7aS)-7a-(((7-(8-ethyl-7-fluoro-3-hydroxynaphthalen-1-yl)-8-fluoro-4-((R)-3-hydroxy-3-methylpiperidin-1-yl)quinazolin-2-yl)oxy)methyl)hexahydro-1H-pyrrolizin-3-yl)methyl 4-((4-(1-(2,6-dioxopiperidin-3-yl)-6-fluoro-3-methyl-2-oxo-2,3-dihydro-1H-benzo[d]imidazol-5-yl)piperidin-1-yl)methyl)piperidine-1-carboxylate]
8 | < 100 nM | < 10 nM | < 1 nM | – | > 50% | CCc1c(F)ccc2cc(O)cc(-c3ncc4c(N5CCC[C@@](C)(O)C5)nc(OC[C@@]56CCCN5[C@H](COC(=O)N5CCC(CN7CCC(c8ccc9c(C%10CCC(=O)NC%10=O)nn(C)c9c8)CC7)CC5)CC6)nc4c3F)c12 (stereo partly drawn) [Compound 99, [(3S,8S)-8-[[7-(8-ethyl-7-fluoro-3-hydroxy-1-naphthyl)-8-fluoro-4-[(3R)-3-hydroxy-3-methyl-1-piperidyl]pyrido[4,3-d]pyrimidin-2-yl]oxymethyl]-1,2,3,5,6,7-hexahydropyrrolizin-3-yl]methyl 4-[[4-[3-(2,6-dioxo-3-piperidyl)-1-methyl-indazol-6-yl]-1-piperidyl]methyl]piperidine-1-carboxylate]
9 | – | – | 1 to 10 nM | > 100 nM | – | C#Cc1c(F)ccc2cc(O)cc(-c3ncc4c(N5CCC[C@@](C)(O)C5)nc(OC[C@@]56CCCN5[C@H](COC(=O)N5CCC(C7CCN(c8ccc9c(c8)n(C)c(=O)n9C8CCC(=O)NC8=O)CC7)CC5)CC6)nc4c3F)c12 (stereo partly shown) [Compound 32]
10 | < 100 nM | < 10 nM | – | – | – | CCc1c(F)ccc2cc(O)cc(-c3ncc4c(N5CCC[C@@](C)(O)C5)nc(OC[C@@]56CCCN5[C@H](COC(=O)N5CCC(N7CC8(CCC(c9ccc%10c(c9)n(C)c(=O)n%10C9CCC(=O)NC9=O)CC8)C7)CC5)CC6)nc4c3F)c12 (stereo partly drawn) [Compound 363, ((3S,7aS)-7a-(((7-(8-ethyl-7-fluoro-3-hydroxynaphthalen-1-yl)-8-fluoro-4-((R)-3-hydroxy-3-methylpiperidin-1-yl)pyrido[4,3-d]pyrimidin-2-yl)oxy)methyl)hexahydro-1H-pyrrolizin-3-yl)methyl 4-(7-(1-(2,6-dioxopiperidin-3-yl)-3-methyl-2-oxo-2,3-dihydro-1H-benzo[d]imidazol-5-yl)-2-azaspiro[3.5]nonan-2-yl)piperidine-1-carboxylate]
11 | < 100 nM | < 10 nM | – | – | – | CCc1c(F)ccc2cc(O)cc(-c3ncc4c(N5CCC[C@H]5CO)nc(OC[C@@]56CCCN5[C@H](COC(=O)N5CCC7(CC5)CC(N5CCC(c8ccc9c(c8)n(C)c(=O)n9C8CCC(=O)NC8=O)CC5)C7)CC6)nc4c3F)c12 (stereo partly drawn) [Compound 351, ((3S,7aS)-7a-(((7-(8-ethyl-7-fluoro-3-hydroxynaphthalen-1-yl)-8-fluoro-4-((S)-2-(hydroxymethyl)pyrrolidin-1-yl)pyrido[4,3-d]pyrimidin-2-yl)oxy)methyl)hexahydro-1H-pyrrolizin-3-yl)methyl 2-(4-(1-(2,6-dioxopiperidin-3-yl)-3-methyl-2-oxo-2,3-dihydro-1H-benzo[d]imidazol-5-yl)piperidin-1-yl)-7-azaspiro[3.5]nonane-7-carboxylate]
12 | > 300 nM | > 100 nM | – | – | – | C#Cc1c(F)ccc2cc(O)cc(-c3ncc4c(N5CCC[C@@](C)(O)C5)nc(OCC5(CN6CCC7(CC6)CN(c6ccc8c(c6)n(C)c(=O)n8C6CCC(=O)NC6=O)C7)CC5)nc4c3F)c12 (stereo partly shown) [Compound 33]
